Source: US20240101544A1, “INHIBITORS OF QPCTL AND QPCT” (priority 2022, published 2024)

Columns and labels:
QPCTL [1] = biological target: T1, QPCTL (Homo sapiens (Human), UniProt Q9NXS2); test: QPCTL Enzymatic Activity Assay (coupled-enzyme fluorescent assay, H-Gln-AMC substrate); format: biochemical; settings: recombinant truncated human QPCTL 10-12 nM, 10 μM H-Gln-AMC; read-out: QPCTL Inhibition IC50
Target sequence in this assay (Q9NXS2 53-382): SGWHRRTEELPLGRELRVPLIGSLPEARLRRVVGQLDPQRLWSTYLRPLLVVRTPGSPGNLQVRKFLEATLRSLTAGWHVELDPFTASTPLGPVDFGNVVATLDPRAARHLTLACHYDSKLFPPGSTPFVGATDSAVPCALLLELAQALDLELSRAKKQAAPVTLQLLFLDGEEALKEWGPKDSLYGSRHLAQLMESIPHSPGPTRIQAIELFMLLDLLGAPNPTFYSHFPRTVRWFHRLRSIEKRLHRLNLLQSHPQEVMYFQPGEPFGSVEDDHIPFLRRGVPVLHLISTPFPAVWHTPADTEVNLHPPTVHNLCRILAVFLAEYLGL

QPCTL [2] = biological target: T1, QPCTL; test: Inhibition of Cellular QPCTL Activity - FACS flow cytometry, CC2C6 anti-CD47 staining of Ramos cells; format: cell-based; settings: Ramos human Burkitts Lymphoma cells, 72-96 hours, % CC2C6-positive cells
Method: Inhibition of Cellular QPCTL Activity—Fluorescence-Activated Cell Sorting (FACS) Flow Cytometry
The cells were incubated for 72-96 hours at 37° C. and 5% CO2. At the end of incubation period, cells were transferred to tubes and spun down at 1200 rpm for 5 minutes. […] After antibody staining, the cells were washed with FACS buffer then stained with SYTOX™ Blue dead cell stain at a dilution of 1:1000. Cells were analyzed on a BD FACS Melody and a positive staining gate on live cells was set using the 0.1% DMSO controls. […] Flow cytometry data were analyzed by FlowJo software and concentration-response-curves and IC50 values were generated using Collaborative Drug Discovery software.
Target sequence in this assay (Q9NXS2 whole entry, the tested form may be a part): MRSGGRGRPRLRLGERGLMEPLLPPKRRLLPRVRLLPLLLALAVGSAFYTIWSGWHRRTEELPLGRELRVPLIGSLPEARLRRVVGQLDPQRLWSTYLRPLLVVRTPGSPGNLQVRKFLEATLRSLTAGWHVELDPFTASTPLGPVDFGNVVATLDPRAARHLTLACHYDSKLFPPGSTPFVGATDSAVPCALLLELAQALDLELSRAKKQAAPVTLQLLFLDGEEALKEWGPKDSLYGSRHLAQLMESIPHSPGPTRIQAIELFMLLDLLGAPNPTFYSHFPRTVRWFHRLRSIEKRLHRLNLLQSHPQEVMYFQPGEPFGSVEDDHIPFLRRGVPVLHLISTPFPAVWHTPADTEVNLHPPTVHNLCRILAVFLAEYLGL

QPCT (rhQPCT) = QPCT (rhQPCT) (Homo sapiens (Human), UniProt Q16769); test: QPCT Enzymatic Activity Assay (coupled-enzyme fluorescent assay, H-Gln-AMC substrate); format: biochemical; settings: rhQPCT 10-12 nM, 10 μM H-Gln-AMC; read-out: QPCT Inhibition IC50
In short: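 Coupled assay: recombinant human QPCT converts H-Gln-AMC (10 μM final) to pyroglutamyl-AMC, 60 min at 37 °C, stopped by boiling; PGPEP-1 then releases AMC.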

QPCTL [3] = biological target: T1, QPCTL; test: Inhibition of Cellular QPCTL Activity - Imaging Assay, CC2C6 anti-CD47 staining of DLD-1 cells; format: cell-based; settings: 72 hours, CC2C6 anti-CD47 high-content imaging
Method: Inhibition of Cellular QPCTL Activity—Imaging Assay
The cells were incubated for 72 hours at 37° C. and 5% CO2. […] After primary antibody staining, the cells were fixed with 4% paraformaldehyde in the incubation buffer for 15 minutes at room temperature. […] Cells were analyzed on a ImageXpress Pico Automated Cell Imaging System (Molecular Devices) using 10× objective (3×3 fields).
Target sequence in this assay (Q9NXS2 whole entry, the tested form may be a part): as above

Sequence of QPCT (rhQPCT) (Q16769 29-361): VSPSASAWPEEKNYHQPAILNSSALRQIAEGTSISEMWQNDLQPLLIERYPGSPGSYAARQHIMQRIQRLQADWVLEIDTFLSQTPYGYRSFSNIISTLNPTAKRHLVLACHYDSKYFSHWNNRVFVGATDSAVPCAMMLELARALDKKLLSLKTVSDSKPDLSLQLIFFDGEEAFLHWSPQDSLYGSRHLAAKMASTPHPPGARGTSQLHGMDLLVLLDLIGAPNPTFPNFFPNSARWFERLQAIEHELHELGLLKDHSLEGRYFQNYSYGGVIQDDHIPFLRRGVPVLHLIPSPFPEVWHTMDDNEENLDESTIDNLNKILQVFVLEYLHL

Row | IC50 (QPCTL [1]) | IC50 (QPCTL [2]) | IC50 (QPCT (rhQPCT)) | IC50 (QPCTL [3]) | Structure (SMILES)
1 | 100 to 1000 nM | 1000 to 10000 nM | < 100 nM | – | Cn1cnnc1C1CCN(c2c(C#N)cccc2-c2ccc3nonc3c2)CC1 [Example 19, 3-(2,1,3-benzoxadiazol-5-yl)-2-[4-(4-methyl-4H-1,2,4-triazol-3-yl)piperidin-1-yl]benzonitrile]
2 | < 100 nM | < 100 nM | < 100 nM | – | COc1ccc(-c2ccnnc2)c(N2CCC(c3nncn3C)CC2)c1C#N [Example 26, 6-methoxy-2-[4-(4-methyl-4H-1,2,4-triazol-3-yl)piperidin-1-yl]-3-(pyridazin-4-yl)benzonitrile]
3 | < 100 nM | < 100 nM | < 100 nM | – | Cn1cnnc1C1CCN(c2c(-c3ccnnc3)ccc(Cl)c2C#N)CC1 [Example 33, 6-chloro-2-[4-(4-methyl-4H-1,2,4-triazol-3-yl)piperidin-1-yl]-3-(pyridazin-4-yl)benzonitrile]
4 | < 100 nM | 1000 to 10000 nM | < 100 nM | – | Cn1cnnc1C1CCN(c2c(C#N)cccc2-c2cncc3c2ccn3C)CC1 [Example 12, 3-{1-methyl-1H-pyrrolo[2,3-c]pyridin-4-yl}-2-[4-(4-methyl-4H-1,2,4-triazol-3-yl)piperidin-1-yl]benzonitrile]
5 | < 100 nM | < 100 nM | < 100 nM | – | Cn1cnnc1C1CCN(c2c(-c3ccc(F)nc3)ccc(-c3ccccc3)c2C#N)CC1 [Example 28, 4-(6-fluoropyridin-3-yl)-3-[4-(4-methyl-4H-1,2,4-triazol-3-yl)piperidin-1-yl]-[1,1′-biphenyl]-2-carbonitrile]
6 | < 100 nM | 1000 to 10000 nM | < 100 nM | – | CN(C)CCOc1ccncc1-c1cccc(C#N)c1N1CCC(c2nncn2C)CC1 [Example 8, 3-{4-[2-(dimethylamino)ethoxy]pyridin-3-yl}-2-[4-(4-methyl-4H-1,2,4-triazol-3-yl)piperidin-1-yl]benzonitrile]
7 | < 100 nM | – | < 100 nM | < 100 nM | CN1CCN(c2ccc(-c3ccc(F)nc3)c(N3CCC(c4nncn4C)CC3)c2C#N)CC1 [Example 80, 3-(6-fluoropyridin-3-yl)-2-(4-(4-methyl-4H-1,2,4-triazol-3-yl)piperidin-1-yl)-6-(4-methylpiperazin-1-yl)benzonitrile]
8 | < 100 nM | – | < 100 nM | < 100 nM | Cn1cnnc1C1CCN(c2c(C#N)ccnc2-c2ccc(F)nc2)CC1 [Example 133, 6′-fluoro-3-(4-(4-methyl-4H-1,2,4-triazol-3-yl)piperidin-1-yl)-[2,3′-bipyridine]-4-carbonitrile]
9 | < 100 nM | – | < 100 nM | < 100 nM | Cn1cnnc1C1CCN(c2c(-c3ccc(F)nc3)ccc(-c3cn[nH]c3)c2C#N)CC1 [Example 73, 3-(6-fluoropyridin-3-yl)-2-(4-(4-methyl-4H-1,2,4-triazol-3-yl)piperidin-1-yl)-6-(1H-pyrazol-4-yl)benzonitrile]
10 | < 100 nM | – | < 100 nM | > 10000 nM | Cn1cnnc1C1CCN(c2c(-c3ccc(F)nc3)ccc(NS(C)(=O)=O)c2C#N)CC1 [Example 84, N-(2-cyano-4-(6-fluoropyridin-3-yl)-3-(4-(4-methyl-4H-1,2,4-triazol-3-yl)piperidin-1-yl)phenyl)methanesulfonamide]
11 | < 100 nM | – | < 100 nM | 100 to 1000 nM | Cn1cnnc1C1CCN(c2c(-c3ccc(F)nc3)ccc(-c3c[nH]nc3N)c2C#N)CC1 [Example 92, 6-(3-amino-1H-pyrazol-4-yl)-3-(6-fluoropyridin-3-yl)-2-(4-(4-methyl-4H-1,2,4-triazol-3-yl)piperidin-1-yl)benzonitrile]
12 | < 100 nM | – | < 100 nM | 100 to 1000 nM | CN(C)C(=O)c1ccc(-c2ccc(F)nc2)c(N2CCC(c3nncn3C)CC2)c1C#N [Example 79, 2-cyano-4-(6-fluoropyridin-3-yl)-N,N-dimethyl-3-(4-(4-methyl-4H-1,2,4-triazol-3-yl)piperidin-1-yl)benzamide]
13 | < 100 nM | – | < 100 nM | 1000 to 10000 nM | Cn1cnnc1C1CCN(c2c(C#N)cc(S(C)(=O)=O)cc2-c2ccc(F)nc2)CC1 [Example 101, 3-(6-fluoropyridin-3-yl)-2-(4-(4-methyl-4H-1,2,4-triazol-3-yl)piperidin-1-yl)-5-(methylsulfonyl)benzonitrile]
14 | < 100 nM | – | < 100 nM | 100 to 1000 nM | Cn1cnnc1C1CCN(c2c(-c3ccc(F)nc3)cc3cn[nH]c3c2C#N)CC1 [Example 105, 5-(6-fluoropyridin-3-yl)-6-(4-(4-methyl-4H-1,2,4-triazol-3-yl)piperidin-1-yl)-1H-indazole-7-carbonitrile]
15 | < 100 nM | – | < 100 nM | < 100 nM | Cn1cnnc1C1CCN(c2c(-c3ccc(F)nc3)ccc(-c3cnn4c3OCCC4)c2C#N)CC1 [Example 64, 6-(6,7-dihydro-5H-pyrazolo[5,1-b][1,3]oxazin-3-yl)-3-(6-fluoropyridin-3-yl)-2-(4-(4-methyl-4H-1,2,4-triazol-3-yl)piperidin-1-yl)benzonitrile]
16 | < 100 nM | – | < 100 nM | < 100 nM | Cc1cc(-c2cccc(C#N)c2N2CCC(c3nncn3C)CC2)cnc1F [Example 47, 3-(6-fluoro-5-methylpyridin-3-yl)-2-(4-(4-methyl-4H-1,2,4-triazol-3-yl)piperidin-1-yl)benzonitrile]
17 | < 100 nM | – | < 100 nM | < 100 nM | Cn1cnnc1C1CCN(c2c(-c3ccc(F)nc3)ccc(N3CC(O)C3)c2C#N)CC1 [Example 95, 3-(6-fluoropyridin-3-yl)-6-(3-hydroxyazetidin-1-yl)-2-(4-(4-methyl-4H-1,2,4-triazol-3-yl)piperidin-1-yl)benzonitrile]
18 | < 100 nM | – | < 100 nM | < 100 nM | Cn1cnnc1C1CCN(c2c(-c3ccc(F)nc3)ccc(-c3ccnc(N)c3)c2C#N)CC1 [Example 44, 6-(2-aminopyridin-4-yl)-3-(6-fluoropyridin-3-yl)-2-(4-(4-methyl-4H-1,2,4-triazol-3-yl)piperidin-1-yl)benzonitrile]
19 | < 100 nM | – | < 100 nM | 1000 to 10000 nM | CNCCOc1ccc(-c2ccc(F)nc2)c(N2CCC(c3nncn3C)CC2)c1C#N [Example 82, 3-(6-fluoropyridin-3-yl)-2-(4-(4-methyl-4H-1,2,4-triazol-3-yl)piperidin-1-yl)-6-(2-(methylamino)ethoxy)benzonitrile]
20 | < 100 nM | – | < 100 nM | < 100 nM | COc1cc(F)c(-c2ccc(F)nc2)c(N2CCC(c3nncn3C)CC2)c1C#N [Example 107, 4-fluoro-3-(6-fluoropyridin-3-yl)-6-methoxy-2-(4-(4-methyl-4H-1,2,4-triazol-3-yl)piperidin-1-yl)benzonitrile]
21 | < 100 nM | – | < 100 nM | < 100 nM | Cc1cc(-c2ccc(-c3cnn(C)c3)c(C#N)c2N2CCC(c3nncn3C)CC2)cnn1 [Example 48, 6-(1-methyl-1H-pyrazol-4-yl)-2-(4-(4-methyl-4H-1,2,4-triazol-3-yl)piperidin-1-yl)-3-(6-methylpyridazin-4-yl)benzonitrile]
22 | < 100 nM | – | < 100 nM | < 100 nM | Cn1ccc(-c2ccc(-c3ccc(F)nc3)c(N3CCC(c4nncn4C)CC3)c2C#N)n1 [Example 43, 3-(6-fluoropyridin-3-yl)-6-(1-methyl-1H-pyrazol-3-yl)-2-(4-(4-methyl-4H-1,2,4-triazol-3-yl)piperidin-1-yl)benzonitrile]
23 | < 100 nM | – | < 100 nM | < 100 nM | Cn1cnnc1C1CCN(c2c(-c3ccc(F)nc3)ccc(F)c2C#N)CC1 [Example 71, 6-fluoro-3-(6-fluoropyridin-3-yl)-2-(4-(4-methyl-4H-1,2,4-triazol-3-yl)piperidin-1-yl)benzonitrile]
24 | < 100 nM | – | < 100 nM | < 100 nM | Cn1cnnc1C1CCN(c2c(-c3ccc(F)nc3)ccc(N3CCOCC3)c2C#N)CC1 [Example 87, 3-(6-fluoropyridin-3-yl)-2-(4-(4-methyl-4H-1,2,4-triazol-3-yl)piperidin-1-yl)-6-morpholinobenzonitrile]
25 | < 100 nM | – | < 100 nM | < 100 nM | Cn1cnnc1C1CCN(c2c(-c3ccc(F)nc3)ccc(C3CC3)c2C#N)CC1 [Example 68, 6-cyclopropyl-3-(6-fluoropyridin-3-yl)-2-(4-(4-methyl-4H-1,2,4-triazol-3-yl)piperidin-1-yl)benzonitrile]
26 | < 100 nM | – | < 100 nM | 1000 to 10000 nM | CNCCN(C)c1ccc(-c2ccc(F)nc2)c(N2CCC(c3nncn3C)CC2)c1C#N [Example 83, 3-(6-fluoropyridin-3-yl)-6-(methyl(2-(methylamino)ethyl)amino)-2-(4-(4-methyl-4H-1,2,4-triazol-3-yl)piperidin-1-yl)benzonitrile]
